Test results as given in US20210338779A1, “THERAPEUTIC USE OF GLUCAGON AND COMBINATION INCLUDING THE SAME” (HANMI PHARM. CO., LTD, priority 2018, published 2021).

Key:
Type in all cases: in vivo, Mouse
[1] = test system: Mice with high-fat-diet-induced obesity; assay: Experimental Example 2: co-administration of long-acting glucagon derivative and oral diabetes drug in mice with high-fat-diet-induced obesity; settings: 28 days; long-acting glucagon derivative 1.2 nmol/kg once every 2 days; Sitagliptin 49.2 mg/kg, Empagliflozin 12.3 mg/kg once a day; SAXENDA 50 nmol/kg twice a day
Experimental: (§1) Mice with high-fat-diet-induced obesity, which have been widely used as obesity animal models, were used for this experiment. The body weights of the mice were in the range of about 50 g to 55 g. During this experiment, mice were housed 7 mice per each group and were given ad libitum access to water. Lights were turned off between 6 P.M. and 6 A. M.
Test groups fed with high-fat diet include: Group 1: administered with an excipient not including long-acting glucagon (5 mL/kg, injection once every 2 days)-control (Vehicle), Group 2: administered with a GLP-1 analog obesity drug (SAXENDA®, 50 nmol/kg, injection twice a day), Group 3: administered with the long-acting glucagon derivative (1.2 nmol/kg, injection once every 2 days), Group 4: administered with a DPP-4 inhibitor (Sitagliptin, 49.2 mg/kg, injection once a day), Group 5: administered with an SGLT-2 inhibitor (Empagliflozin, 12.3 mg/kg, injection once a day), Group 6: co-administered with Sitagliptin (49.2 mg/kg, injection once a day) and the long-acting glucagon derivative (1.2 nmol/kg, injection once every 2 days), and Group 7: Empagliflozin (12.3 mg/kg, injection once a day) and the long-acting glucagon derivative (1.2 nmol/kg, injection once every 2 days). The long-acting glucagon derivative used in this experiment was the long-acting derivative according to Example 5.
(§2) The experiment was terminated on the 28th day, and changes in body weight of the mice in each group were measured at 2-day intervals during the progress of the experiment, and changes in blood glucose level were measured before administration and at the 1st, 4th, 7th, 10th, 13th, 16th, 19th, 22nd, 25th, and 28th days after administration. Upon termination of the experiment, the weight of fat and HOMA-IR were measured.
(§3) Statistical analysis was performed by comparing the excipient group (control) with the test groups by 1-way ANOVA.

[2] = test system: Mice with high-fat-diet-induced obesity; assay: Experimental Example 1: body weight, fat, HOMA-IR and blood glucose in mice with high-fat-diet-induced obesity; settings: 28 days; long-acting glucagon derivative 1.2 nmol/kg once every 2 days; SAXENDA 50 nmol/kg twice a day; Sitagliptin 49.2 mg/kg once a day
Experimental: as §1
Test groups fed with high-fat diet include: Group 1: administered with an excipient not including long-acting glucagon (5 mL/kg, injection once every 2 days)-control (Vehicle), Group 2: administered with a GLP-1 analog obesity drug (SAXENDA®, 50 nmol/kg, injection twice a day), Group 3: administered with the long-acting glucagon derivative (1.2 nmol/kg, injection once every 2 days), and Group 4: administered with a DPP-4 inhibitor (Sitagliptin, 49.2 mg/kg, injection once a day).
as §2, §3

[3] = test system: Mice with high-fat-diet-induced obesity; assay: Experimental Example 3: long-acting glucagon derivative and GLP-1 analogs, alone and co-administered, in mice with high-fat-diet-induced obesity; settings: 28 days; glucagon long-acting derivative 2.0 nmol/kg once every 2 days; SAXENDA 50 nmol/kg twice a day; OZEMPIC 20.5 nmol/kg, TRULICITY 2.7 nmol/kg once every 2 days
Experimental: as §1, with “Light was” for “Lights were”, “A.M. […]” for “A. M.”
The experiment was terminated on the 28th day, and changes in body weight of the mice in each group were measured at 2-day intervals during the progress of the experiment. Upon termination of the experiment, blood lipid levels, weights of fat, and blood glucose levels were measured. […]

Molecule | weight loss (change in body weight) [1] [%] | change in body weight compared to body weight before administration [2] [%] | weight loss compared to the body weight before administration [3] [%]
OC[C@H]1O[C@@H](c2ccc(Cl)c(Cc3ccc(O[C@H]4CCOC4)cc3)c2)[C@H](O)[C@@H](O)[C@@H]1O [Empagliflozin] | −10.4 |  | 
N[C@@H](CC(=O)N1CCn2c(nnc2C(F)(F)F)C1)Cc1cc(F)c(F)cc1F [Sitagliptin] | −0.1 | −0.1 | 
SAXENDA®: GLP-1 analog obesity drug (HAEGTFTSDVSSYLEGQAAKEFIAWLVRGRG; chains of the INN, looked up) | −16.3 | −16.3 | −18.10
TRULICITY®: long-acting GLP-1 analog |  |  | −3.81
